Where two headings read alike, the source gives them in different places.
What was measured:
[1] = target: T1, SARS-CoV-2 PL^pro (Severe acute respiratory syndrome coronavirus 2, UniProt P0DTD1); test: biochemical; conditions: for inhibition at 1 µM: 0.5 h, read-out: inhibition [%] SARS-CoV-2 PLpro
[2] = target: SARS-CoV-2 M^pro (Severe acute respiratory syndrome coronavirus 2, UniProt P0DTD1); test: biochemical; conditions: for inhibition at 0.1 µM: read-out: inhibition [%] SARS-CoV-2 Mpro, [I] = 100 nM; for inhibition at 1 µM: read-out: inhibition [%] SARS-CoV-2 Mpro, [I] = 1 µM
[3] = target: SARS-CoV-2 nsp14 N7-MTase (Severe acute respiratory syndrome coronavirus 2, UniProt P0DTD1); test: Py-FLINT fluorescence assay of nsp14 N7-MTase; assay type: biochemical; conditions: for SARS-CoV-2 nsp14 Hill coefficient p: four-parameter dose-response fit, variable Hill slope
Description: To determine their IC50 values, we used the previously described fluorescence assay Py-FLINT[42],[67]. To this end, the Py-FLINT probe (1 μM) was incubated with SAM cosubstrate (20 μM), nsp14 enzyme (40 nM), and half-log inhibitor dilutions in 50 mM Tris–HCl pH 7.5 buffer at 30 °C. The reaction progress was monitored in 96-well cells by registering the fluorescence intensity signal with a 1-min time interval. Using the initial reaction course, the values of initial rates V were calculated. To calculate IC50 values from the obtained dependences of initial rates versus inhibitor concentration, we fitted a four-parameter dose–response equation, assuming a variable Hill slope p (Table 3, Fig. S2).
The Py-FLINT probe (1 μM) was incubated with SAM cosubstrate (20 μM), nsp14 (40 nM), and an inhibitor (half-log dilutions logCinh < − 2.5; 2 >). […] Initial rates V were calculated by fitting a linear curve to the first 10 points (10 min). To the obtained dependences V(Cinh) the following four-parameter dose–response equation was fitted:1 V/V0=A1+A2-A1/1+Cinh/IC50^p, where A1 and A2 are the bottom and top asymptotes, respectively; Cinh the inhibitor concentration; p is the Hill coefficient, and V/V0 is the ratio of the initial reaction rate with the inhibitor to that without the inhibitor. For curve fitting and IC50 calculations we used GraphPad Prism software.

[4] = Cytotoxicity assay (XTT) in Vero E6 cells; assay type: cell-based; conditions: African green monkey
Description: (§1) Cytotoxicity was evaluated by incubating two-fold serial dilutions of each compound with Vero E6 cells.

[5] = tested on: M^pro; conditions: Protease-Glo luciferase and Flip-GFP assays; cited from earlier work
[6] = tested on: M^pro; conditions: in vitro FRET substrate assay, recombinant enzyme; cited from earlier work
[7] = target: T1, SARS-CoV-2 PL^pro; conditions: Flip-GFP assay, 293T-ACE2 cells; cited from earlier work
[8] = phase I clinical trial, humans; cited from earlier work
[9] = tested on: SARS-CoV-2; test: Cytopathic effect (CPE)-based anti-SARS-CoV-2 assay in Vero E6 cells; conditions: read-out: EC50 CPE, three days, XTT
[10] = tested on: Vero E6 cells; test: Cytotoxicity assay (XTT) in Vero E6 cells; assay type: cell-based; conditions: Vero E6 cells, three days, XTT
Description: as §1

[11] = tested on: A549 human cell line; conditions: cited from earlier work
[12] = tested on: SARS-CoV-2; test: RNA reduction-based anti-SARS-CoV-2 assay (RT-qPCR) in Vero E6 cells; conditions: read-out: EC50 RNA, two days, RT-qPCR of medium
[13] = [E] = 100 nM, [I] = 1 µM, [S] = 10 µM

Row | SMILES | inhibition [%] SARS-CoV-2 PLpro [1, 13] [%] | inhibition at 0.1 µM [2] [%] | inhibition at 1 µM [1] [%] | other results
1 | O=c1c2ccccc2[se]n1-c1ccccc1C(F)(F)F [Compound 5] | 44.4 ± 2.5 | 62.8 ± 0.7 |  | 
2 | O=c1c2ccccc2[se]n1-c1ccccc1 [Ebselen, 2-phenylbenzisoselenazol-3(2H)-one, reference compound] |  |  |  | inhibition at 1 µM [1, 13]: 65.4 ± 2.4%; inhibition at 0.1 µM ([2]; [E] = 100 nM, [I] = 100 nM, [S] = 50 µM): 57.6 ± 1.3%; inhibition at 1 µM [2]: 100%; SARS-CoV-2 nsp14 Hill coefficient p [3]: 2.74 ± 0.47; CC50 at 3 days [4]: ~30 µM; M^pro inhibition in cells [5]: no M^pro inhibition; M^pro inhibition in presence of reducing agent [6]: does not inhibit; SARS-CoV-2 PL^pro inhibition in cells [7]: no SARS-CoV-2 PL^pro inhibition; tolerated single dose [8]: 1600 mg; EC50 [9]: 34 ± 7.9 µM
3 | O=c1c2ccccc2[se]n1-c1ccccc1F [Compound 1] |  | 72.3 ± 2.3 | 54.6 ± 2 | 
4 | CC(=O)Nc1ccc(-n2[se]c3ccccc3c2=O)cc1 [Compound 13] |  | 62 ± 1 | 57.3 ± 1.8 | 
5 | O=C(Nc1ccccc1C(F)(F)F)c1ccccc1[Se][Se]c1ccccc1C(=O)Nc1ccccc1C(F)(F)F [Compound 26] | 61.3 ± 2.2 | 34.5 ± 4.4 |  | inhibition at 1 µM [2]: 78.1 ± 2.4%; IC50 [3]: 1.82 ± 0.32 µM; CC50 [10]: > 50 µM; EC50 [9]: 37 ± 2.4 µM
6 | Cc1ccc(Cl)c(-n2[se]c3ccccc3c2=O)c1 [Compound 19] | 57.6 ± 3.0 | 61.8 ± 0.5 |  | 
7 | Cc1ccc(Cl)cc1-n1[se]c2ccccc2c1=O [Compound 20] |  | 69 ± 3.5 | 62.6 ± 1.7 | 
8 | O=c1c2ccccc2[se]n1-c1ccccc1Cl [Compound 2] |  | 66.5 ± 3.4 | 56.7 ± 4.1 | 
9 | Cc1ccc(Cl)cc1NC(=O)c1ccccc1[Se][Se]c1ccccc1C(=O)Nc1cc(Cl)ccc1C [Compound 32] | 72.4 ± 1.7 | 55.4 ± 3.8 |  | inhibition at 1 µM [2]: 100%; IC50 [3]: 12.1 ± 1.1 µM; CC50 [10]: > 50 µM; EC50 [9]: 22 ± 2.5 µM
10 | COc1ccc(-n2[se]c3ccccc3c2=O)c(OC)c1 [Compound 16] |  | 59 ± 1.5 | 64.3 ± 3.8 | SARS-CoV-2 nsp14 Hill coefficient p [3]: 2.36 ± 0.32; melting point: 238 to 240 °C; toxicity in A549 cells, times lower in comparison with ebselen [11]: 10 times
11 | Cc1cc(-n2[se]c3ccccc3c2=O)ccc1Cl [Compound 22] |  | 72.2 ± 0.8 | 43.1 ± 2.1 | 
12 | Cc1cc(NC(=O)c2ccccc2[Se][Se]c2ccccc2C(=O)Nc2ccc(Cl)c(C)c2)ccc1Cl [Compound 33] | 72.1 ± 3.2 | 48.7 ± 5.4 |  | inhibition at 1 µM [2]: 92 ± 0.3%; IC50 [3]: 1.06 ± 0.05 µM; CC50 [10]: > 50 µM; EC50 [9]: 20 ± 1.4 µM; EC50 [12]: 1.7 ± 0.08 µM
13 | CC(=O)c1ccc(-n2[se]c3ccccc3c2=O)cc1 [Compound 12] | 59.0 ± 3.0 | 55.1 ± 2.7 |  | 
14 | O=C(Nc1c(F)cccc1Cl)c1ccccc1[Se][Se]c1ccccc1C(=O)Nc1c(F)cccc1Cl [Compound 34] | 60.2 ± 1.7 | 32 ± 2.1 |  | inhibition at 1 µM [2]: 43.1 ± 3%; IC50 [3]: 2.1 ± 0.58 µM; CC50 [10]: > 50 µM; EC50 [9]: 9.3 ± 0.92 µM; EC50 [12]: 3.4 ± 0.2 µM
15 | O=c1c2ccccc2[se]n1-c1ccc(F)cc1F [Compound 14] | 58.1 ± 3.9 | 64.8 |  | 
16 | O=c1c2ccccc2[se]n1-c1ccc(Cl)cc1F [Compound 15] | 55.7 ± 3.1 | 77.1 ± 2.8 |  | 
17 | O=c1c2ccccc2[se]n1-c1cc(Cl)ccc1F [Compound 17, 2-(5-chloro-2-fluorophenyl)-1,2-benzisoselenazol-3(2H)-one] |  | 82.3 ± 2.1 | 47.2 ± 1 | SARS-CoV-2 nsp14 Hill coefficient p [3]: 2.15 ± 0.28
